From patent US12606569B2, “Alkaloid-containing compositions and uses thereof” (priority 2017, dated 2026)
Read-outs that look alike come from different tables or passages of the source.

Experiments:
[1] = format: physicochemical; conditions: for chemical stability of the component in buffers / degradation of the component at pH 2 and 10: 1% w/w purified loline extract, 0.2M buffers; for chemical stability of the component in buffers: except pH 2 and 10; for degradation of the component at pH 2 and 10: starting at 24 h
Procedure: 1% w/w solutions of purified loline extract at various pH and 0.2M buffers were used in this investigation. The solutions were maintained at 54° C. (±1° C.) and 70° C. (±1° C.) and pH remained at the target pH (±0.2 pH units). Samples were taken periodically over a 2-3 week period and analysed by GC-FID to determine NFL strength.

[2] = format: physicochemical

CN(C=O)C1C2CN3CCC(O2)[C@H]13 (stereo partly shown) [NFL, N-formylloline]
stability on increasing or decreasing pH from pH 4 ([1]; 70° C.): significant decrease in stability | time after which the stability of NFL plateaus ([1]; 70° C., pH 2.6): approximately 100 hours | stability (degradation of NFL to loline) ([1]; 70° C., pH 4, acetic acid derived buffer, over 170 hours): greatest stability | stability (degradation of NFL to loline) ([1]; 70° C., pH 4, citric acid buffer): lower stability | overall degradation rates ([2]; 50° C. compared with 70° C.): reduced | conversion of NFL to loline, citric acid based system versus acetic acid derived buffer ([2]; both 50° C. and 70° C.): higher degradation

CC(=O)N(C)C1C2CN3CCC(O2)C13 (stereo not shown) [NAL, N-acetylloline]
chemical stability of the component in buffers [1]: chemically stable | degradation of the component at pH 2 and 10 [1]: small degradation

CC(=O)NC1C2CN3CCC(O2)C13 (stereo not shown) [NANL, N-acetylnorloline]
chemical stability of the component in buffers [1]: chemically stable | degradation of the component at pH 2 and 10 [1]: small degradation
